Columns and labels:
Test in all cases: KinomeScan profiling
Format in all cases: binding
ASK2 = biological target: T1, ASK2 (Homo sapiens, UniProt O95382); conditions: ASK2, 1 μM; read-out: % control
T1 construct: purchased KinomeScan®
T1 sequence (O95382 1-1288): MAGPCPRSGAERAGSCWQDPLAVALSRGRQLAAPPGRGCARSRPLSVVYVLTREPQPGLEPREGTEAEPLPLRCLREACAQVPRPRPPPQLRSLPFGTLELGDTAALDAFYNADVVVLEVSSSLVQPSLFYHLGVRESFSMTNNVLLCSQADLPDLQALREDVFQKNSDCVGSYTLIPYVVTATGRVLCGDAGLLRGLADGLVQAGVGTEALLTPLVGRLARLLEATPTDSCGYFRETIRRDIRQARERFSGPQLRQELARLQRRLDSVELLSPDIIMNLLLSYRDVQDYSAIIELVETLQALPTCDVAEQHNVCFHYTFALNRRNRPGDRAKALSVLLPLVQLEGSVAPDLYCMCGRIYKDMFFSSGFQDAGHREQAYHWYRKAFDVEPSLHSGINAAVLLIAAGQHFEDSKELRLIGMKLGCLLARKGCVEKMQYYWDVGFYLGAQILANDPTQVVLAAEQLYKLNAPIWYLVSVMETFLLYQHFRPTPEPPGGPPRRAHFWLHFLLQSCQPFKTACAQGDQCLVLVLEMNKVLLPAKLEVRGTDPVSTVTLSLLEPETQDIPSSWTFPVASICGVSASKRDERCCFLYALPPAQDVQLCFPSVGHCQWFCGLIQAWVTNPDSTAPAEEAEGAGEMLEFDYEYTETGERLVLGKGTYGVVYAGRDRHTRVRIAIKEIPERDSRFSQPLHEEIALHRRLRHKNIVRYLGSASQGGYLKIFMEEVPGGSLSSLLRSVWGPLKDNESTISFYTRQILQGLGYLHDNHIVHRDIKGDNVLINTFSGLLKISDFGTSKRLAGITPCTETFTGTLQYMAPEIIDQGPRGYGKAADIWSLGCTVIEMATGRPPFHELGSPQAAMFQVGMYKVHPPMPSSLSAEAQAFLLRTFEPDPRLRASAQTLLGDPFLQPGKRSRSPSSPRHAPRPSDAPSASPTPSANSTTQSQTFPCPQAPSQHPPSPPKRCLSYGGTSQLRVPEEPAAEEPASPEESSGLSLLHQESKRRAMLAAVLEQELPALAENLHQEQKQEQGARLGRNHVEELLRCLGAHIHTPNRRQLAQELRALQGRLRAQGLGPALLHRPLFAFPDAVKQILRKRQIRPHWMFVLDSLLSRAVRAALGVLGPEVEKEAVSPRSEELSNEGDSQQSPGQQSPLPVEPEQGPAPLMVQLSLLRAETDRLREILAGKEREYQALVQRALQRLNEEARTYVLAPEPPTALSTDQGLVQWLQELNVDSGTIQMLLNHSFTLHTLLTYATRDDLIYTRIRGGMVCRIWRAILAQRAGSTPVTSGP
Outline: (§1)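 The panel spans 468 kinases, and each inventive compound was applied at 1 μM from DMSO. Lower % control means stronger binding; the activity cut-off is set at less than 35%.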

DAPK2 = DAPK2 (Homo sapiens, UniProt Q9UIK4); conditions: DAPK2, 1 μM; read-out: % control
Chain of DAPK2 (Q9UIK4 whole entry): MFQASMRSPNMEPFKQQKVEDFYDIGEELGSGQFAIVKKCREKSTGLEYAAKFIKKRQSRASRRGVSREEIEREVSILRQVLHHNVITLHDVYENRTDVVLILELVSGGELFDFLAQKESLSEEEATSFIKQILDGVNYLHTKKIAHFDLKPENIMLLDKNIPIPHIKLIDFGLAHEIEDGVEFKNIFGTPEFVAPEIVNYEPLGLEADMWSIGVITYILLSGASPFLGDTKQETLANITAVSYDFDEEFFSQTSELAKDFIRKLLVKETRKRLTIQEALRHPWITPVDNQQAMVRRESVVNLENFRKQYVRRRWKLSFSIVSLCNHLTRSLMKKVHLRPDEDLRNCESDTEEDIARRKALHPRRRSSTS
Outline: as §1

EPHA1 = biological target: T2, EPHA1 (Homo sapiens, UniProt P21709); conditions: EPHA1, 1 μM; read-out: % control
T2 sequence (P21709 26-976): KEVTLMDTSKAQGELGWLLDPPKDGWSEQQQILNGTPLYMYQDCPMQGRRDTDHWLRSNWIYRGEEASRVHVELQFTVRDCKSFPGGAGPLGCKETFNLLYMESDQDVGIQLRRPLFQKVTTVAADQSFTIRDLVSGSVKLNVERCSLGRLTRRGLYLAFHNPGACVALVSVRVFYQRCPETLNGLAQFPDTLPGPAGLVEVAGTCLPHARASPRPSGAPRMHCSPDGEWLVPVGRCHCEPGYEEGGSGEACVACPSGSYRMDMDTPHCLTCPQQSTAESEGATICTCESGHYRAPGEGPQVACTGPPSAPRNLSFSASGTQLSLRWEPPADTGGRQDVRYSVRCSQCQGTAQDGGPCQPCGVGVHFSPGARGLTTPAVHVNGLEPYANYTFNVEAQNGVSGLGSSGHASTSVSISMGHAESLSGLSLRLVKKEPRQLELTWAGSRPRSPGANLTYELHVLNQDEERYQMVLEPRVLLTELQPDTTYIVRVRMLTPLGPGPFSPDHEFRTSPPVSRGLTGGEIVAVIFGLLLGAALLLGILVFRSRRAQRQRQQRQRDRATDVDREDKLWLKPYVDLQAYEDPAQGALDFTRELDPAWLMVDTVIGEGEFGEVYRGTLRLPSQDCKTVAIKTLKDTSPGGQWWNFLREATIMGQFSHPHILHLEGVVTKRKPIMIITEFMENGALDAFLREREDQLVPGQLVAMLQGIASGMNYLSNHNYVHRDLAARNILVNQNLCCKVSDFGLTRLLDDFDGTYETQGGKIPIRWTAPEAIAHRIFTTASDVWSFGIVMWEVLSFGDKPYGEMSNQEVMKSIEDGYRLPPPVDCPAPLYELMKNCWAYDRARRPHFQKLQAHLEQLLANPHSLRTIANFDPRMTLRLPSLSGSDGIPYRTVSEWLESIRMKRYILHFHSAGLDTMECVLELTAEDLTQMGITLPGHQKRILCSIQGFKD
Outline: as §1

PIK3CA(E545A) = biological target: T3, PIK3CA(E545A) (Homo sapiens, UniProt P42336, E545A); conditions: read-out: % control
T3 construct: purchased KinomeScan® (panel service)
T3 sequence (P42336 whole entry E545A): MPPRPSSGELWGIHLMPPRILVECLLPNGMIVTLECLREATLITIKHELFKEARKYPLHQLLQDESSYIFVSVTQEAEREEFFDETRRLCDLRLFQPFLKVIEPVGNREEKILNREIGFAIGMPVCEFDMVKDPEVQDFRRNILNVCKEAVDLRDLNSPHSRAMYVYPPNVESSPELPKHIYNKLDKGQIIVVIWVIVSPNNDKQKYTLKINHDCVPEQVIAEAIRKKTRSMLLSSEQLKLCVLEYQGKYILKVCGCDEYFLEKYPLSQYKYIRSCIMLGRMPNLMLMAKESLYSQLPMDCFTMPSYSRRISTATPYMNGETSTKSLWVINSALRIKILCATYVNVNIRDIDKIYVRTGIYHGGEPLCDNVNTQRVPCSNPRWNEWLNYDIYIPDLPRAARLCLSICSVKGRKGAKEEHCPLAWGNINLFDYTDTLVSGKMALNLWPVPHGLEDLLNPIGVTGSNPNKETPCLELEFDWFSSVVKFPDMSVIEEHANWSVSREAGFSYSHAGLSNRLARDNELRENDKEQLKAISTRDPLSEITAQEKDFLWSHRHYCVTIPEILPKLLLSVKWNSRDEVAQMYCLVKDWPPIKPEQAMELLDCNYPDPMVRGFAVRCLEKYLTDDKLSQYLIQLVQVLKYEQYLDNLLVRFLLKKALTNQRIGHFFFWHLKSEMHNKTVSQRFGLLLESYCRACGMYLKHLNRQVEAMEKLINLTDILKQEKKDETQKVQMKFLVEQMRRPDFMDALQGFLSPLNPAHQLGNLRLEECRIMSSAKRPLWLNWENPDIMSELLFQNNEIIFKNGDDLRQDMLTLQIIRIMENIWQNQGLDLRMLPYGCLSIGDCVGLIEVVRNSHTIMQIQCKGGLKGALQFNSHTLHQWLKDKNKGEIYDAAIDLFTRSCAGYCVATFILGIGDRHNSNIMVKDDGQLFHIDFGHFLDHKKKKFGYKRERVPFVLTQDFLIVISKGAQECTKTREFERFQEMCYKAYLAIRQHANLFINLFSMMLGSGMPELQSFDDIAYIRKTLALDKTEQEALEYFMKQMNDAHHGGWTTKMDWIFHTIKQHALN
Outline: as §1

PIK3CB = biological target: T4, PIK3CB (Homo sapiens, UniProt P42338); conditions: read-out: % control
T4 construct: purchased KinomeScan® (panel service)
T4 sequence (P42338 whole entry): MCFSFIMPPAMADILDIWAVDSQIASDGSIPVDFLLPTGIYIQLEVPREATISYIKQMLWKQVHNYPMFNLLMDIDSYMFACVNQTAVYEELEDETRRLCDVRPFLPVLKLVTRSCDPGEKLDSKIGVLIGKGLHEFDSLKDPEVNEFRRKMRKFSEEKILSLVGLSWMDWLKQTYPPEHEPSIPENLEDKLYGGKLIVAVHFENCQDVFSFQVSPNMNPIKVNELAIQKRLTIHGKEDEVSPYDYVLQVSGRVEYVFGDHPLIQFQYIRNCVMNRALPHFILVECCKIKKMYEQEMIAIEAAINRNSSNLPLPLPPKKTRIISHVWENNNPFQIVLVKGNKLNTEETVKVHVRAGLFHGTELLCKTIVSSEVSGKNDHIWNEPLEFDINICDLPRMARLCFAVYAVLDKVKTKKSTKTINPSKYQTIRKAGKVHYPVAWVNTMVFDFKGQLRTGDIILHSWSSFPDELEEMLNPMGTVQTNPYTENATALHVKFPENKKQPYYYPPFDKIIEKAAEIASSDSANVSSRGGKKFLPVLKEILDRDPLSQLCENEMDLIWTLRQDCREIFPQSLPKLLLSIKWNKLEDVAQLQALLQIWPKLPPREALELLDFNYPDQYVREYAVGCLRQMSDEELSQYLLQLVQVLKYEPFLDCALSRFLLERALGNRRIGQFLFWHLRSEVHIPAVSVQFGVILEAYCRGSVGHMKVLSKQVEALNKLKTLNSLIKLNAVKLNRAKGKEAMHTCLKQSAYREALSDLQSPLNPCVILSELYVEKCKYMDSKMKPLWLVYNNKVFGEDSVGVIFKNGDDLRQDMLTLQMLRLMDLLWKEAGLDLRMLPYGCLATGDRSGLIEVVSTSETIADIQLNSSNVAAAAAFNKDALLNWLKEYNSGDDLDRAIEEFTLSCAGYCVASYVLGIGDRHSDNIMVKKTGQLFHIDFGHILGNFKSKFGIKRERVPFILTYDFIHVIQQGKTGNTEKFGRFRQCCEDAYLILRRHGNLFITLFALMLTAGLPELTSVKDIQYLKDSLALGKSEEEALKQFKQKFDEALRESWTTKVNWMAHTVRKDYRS
Outline: as §1

With CNc1c(-c2cnn([C@H]3CCN(C(C)=O)C[C@@H]3F)c2)cnc2[nH]cc(Cl)c12 [Compound 77, 1-((3S,4S)-4-(4-(3-chloro-4-(methylamino)-1H-pyrrolo[2,3-b]pyridin-5-yl)-1H-pyrazol-1-yl)-3-fluoropiperidin-1-yl)ethan-1-one] the remaining binding at 1 µM (ASK2) was 30%, the remaining binding at 1 µM (DAPK2) was 72% and the remaining binding at 1 µM (EPHA1) was 83%. It also gave a remaining binding at 1 µM (PIK3CA(E545A)) of 80% and a remaining binding at 1 µM (PIK3CB) of 100%.

CNc1c(-c2ccc(C(=O)N3CCC(N4CCOCC4)CC3)cc2)cnc2[nH]cc(Cl)c12 [Compound 96, (4-(3-chloro-4-(methylamino)-1H-pyrrolo[2,3-b]pyridin-5-yl)phenyl)(4-morpholinopiperidin-1-yl)methanone] was tested, and the remaining binding at 1 µM (ASK2) was 42%, the remaining binding at 1 µM (DAPK2) was 82% and the remaining binding at 1 µM (EPHA1) was 81%. For the same compound, the remaining binding at 1 µM (PIK3CA(E545A)) was 62% and the remaining binding at 1 µM (PIK3CB) was 100%.

O=C(c1ccc(-c2cnc3[nH]cc(Cl)c3c2NC2CCCC2)cc1)N1CCC(N2CCOCC2)CC1 [Compound 101, (4-(3-chloro-4-(cyclopentylamino)-1H-pyrrolo[2,3-b]pyridin-5-yl)phenyl)(4-morpholinopiperidin-1-yl)methanone] gave a remaining binding at 1 µM (ASK2) of 100%, a remaining binding at 1 µM (DAPK2) of 100% and a remaining binding at 1 µM (EPHA1) of 76%. The remaining binding at 1 µM (PIK3CA(E545A)) was 98% and the remaining binding at 1 µM (PIK3CB) was 100%.
